Experiments:
[1] = Side effects in treated animals; conditions: in vivo
[2] = system: CA3-CA1 connections in hippocampal slices; assay: Electrophysiology (fEPSP, PPF, LTP, LTD) in Wt hippocampal slices; assay type: cell-based, mice
Method: Slices were transferred to an experimental chamber (2 ml), superfused (3 ml/min, at 20-22° C.) with gassed ACSF and visualized by trans-illumination with a binocular microscope (MSZ-10, Nikon, Melville, N.Y.). […] The stimulation was in the Stratum Radiatum within 100-200 μm from the recording site. The paired pulse facilitation index was calculated by ((R2−R1)/R1), where R1 and R2 were the peak amplitudes of the first and second fEPSP respectively. To generate LTP we used Theta Burst Stimulation (TBS) consisting of 5 trains of stimulus with an inter-train interval of 20 s. Each train consisted of 10 bursts at 5 Hz and each burst having 4 pulses at 100 Hz. To generate LTD we used Low Frequency Stimulation (LFS) consisting in 900 paired pulses at 1 Hz. Recordings were filtered at 2.0-3.0 kHz, sampled at 4.0 kHz using an A/D converter, and stored with pClamp 10 (Molecular Devices). Evoked postsynaptic responses were analyzed off-line, using an analysis software (pClampfit, Molecular Devices), which allowed visual detection of events, computing only those events that exceeded and arbitrary threshold.

[3] = system: GSK-3β; assay: Immunoblot of GSK-3β phosphorylation state and β-catenin in Wt hippocampal slices; assay type: cell-based, mice
Method: The hippocampus and cortex of treated or control transgenic mice were dissected on ice and immediately processed has detailed previously (Toledo & Inestrosa 2010). Briefly, hippocampal and cortical tissues were homogenized in RIPA buffer (10 mM Tris-Cl, pH 7.4, EDTA 5 mM, 1% NP-40, 1% sodium deoxycholate, and 1% SDS) supplemented with a protease inhibitor mixture and phosphatase inhibitors (25 mMNaF, 100 mM Na3VO4 and 30 μM Na4P2O7) using a Potter homogenizator and then passed sequentially through different caliber syringes. Protein samples were centrifuged at 14000 rpm at 4° C. twice for 15 min Protein concentrations were determined using the BCA Protein Assay Kit (Pierce). Samples were resolved by SDS-PAGE followed by immunoblotting on PVDF membranes. Western blot assays were carried out as previously described (Inestrosa et al 2013; Toledo & Inestrosa 2010).
Hippocampal slices were prepared according to standard procedures previously described (Cerpa et al 2010; VarelaNallar et al 2010). Briefly, transverse slices (350 μm) from the dorsal hippocampus were cut under cold artificial cerebrospinal fluid (ACSF, in mM: 124 NaCl, […], 10 D-glucose, 2.69 KCl, 1.25 KH2PO4 2.5 CaCl2, 1.3 MgSO4, y 2.60 NaHPO4) using a V ibratome (Leica VT 1000s, Germany) and incubated in ACSF for 1 h at room temperature. In all experiments, 10 μM picrotoxin (PTX) was added to suppress inhibitory GABAA transmission (Cuitino et al 2010). Slices were transferred to an experimental chamber (2 ml), superfused (3 ml/min, at 20-22° C.) with gassed ACSF and visualized by trans-illumination with a binocular microscope (MSZ-10, Nikon, Melville, N.Y.). […] The paired pulse facilitation index was calculated by ((R2−R1)/R1), where R1 and R2 were the peak amplitudes of the first and second fEPSP respectively. […] Evoked postsynaptic responses were analyzed off-line, using an analysis software (pClampfit, Molecular Devices), which allowed visual detection of events, computing only those events that exceeded and arbitrary threshold.

[4] = system: Wnt target genes in cultured hippocampal neurons; assay: PCR array of Wnt target genes in hippocampal neurons; assay type: cell-based, rat
Method: Primary culture of rat hippocampal neurons. […] PCR-ARRAY. RNA from hippocampal neurons was extracted using Trizol. Quantification and purity of RNA preparations were checked by absorbance using Nanodrop ND-2000. Only preparations with a 260/280 nm ratio ≧1.8, a 260/230 nm ratio ≧1.7 and no sign of RNA degradations, verified by agarose gel electrophoresis with Gel Red™ were used. Genomic DNA was degraded. Using RT2First-Strand cDNA Synthesis kit (SuperArray), 1 ng total RNA was reverse transcribed and then real-time PCR was performed by adding cDNA directly to PCR Master Mix, containing SYBR Green and ROX. The mixtures were then aliquoted into a 96-well PCR array plates, which profiles the expression of 84 Wnt target genes from rat. The PCR was run on ABI StepOnePlus, with 1 cycle of 10 min at 95° C. followed by 40 cycles of 15s at 95° C. and 1 min at 60° C. […] Treatment of neuronal cultures. Primary hippocampal cultures of neurons 14 DIV were washed twice in neurobasal medium and maintained for 1 hour. Next ANDRO (10 μM) and 6-BIO (10 μM) were added to different time periods.

[5] = system: APPswe/PS-1 double transgenic mice; assay: Memory flexibility test (modified Morris Water Maze); assay type: in vivo; conditions: 7-month-old APPswe/PS-1 mice, 2.0 mg/kg IP three times per week, four weeks, vs Tg control
[6] = system: APPswe/PS-1 double transgenic mice; assay: Classical Morris Water Maze test; assay type: in vivo; conditions: 12 month-old APPswe/PS-1 mice, 2.0 mg/kg IP three times per week, four weeks, vs Tg control
[7] = Wt hippocampal slices, 10 μM ANDRO for 1 hr (FIG. 5)

With `C=C1CC[C@@H]2C(C)(CO)C(O)CC[C@@]2(C)C1C/C=C1/C(=O)OCC1O` (stereo in doubt) [ANDRO, 3-(2-(Decahydro-6-hydroxy-5-(hydroxymethyl)-5,8a-dimethyl-2-methylenenaphthyl)ethylidene)dihydro-4-hydroxyfuran-2(3H)-one] the “side effects in animals” value [1] was “seems not to cause side effects in animals”, the “fEPSP amplitude (basal synaptic transmission)” value ([2]; ANDRO (5 μM), slices exposed for 30 min) was “increased the fEPSP amplitude” and the “paired pulse facilitation (PPF) ratio” value ([2]; Wt hippocampal slices) was “does not increase PPF ratio”. For the same compound, the “LTP induction or maintenance” value ([2]; Wt hippocampal slices, TBS, in the presence of ANDRO) was “do not observed alteration in the LTP induction or maintenance”, the “induction of LTD” value ([2]; hippocampal slices, LFS) was “the LTD was inhibited” and the “levels of β-catenin” value ([3]; Wt hippocampal slices incubated with ANDRO) was “increase in the levels of β-catenin”. The “active form of GSK-3β (Tyr-216 phosphorylation)” value [3, 7] was “reduction of the active form (Tyr-216)”, the “inactive form of GSK-3β (Ser-9 phosphorylation)” value [3, 7] was “increase in the levels of the inactive form of GSK-3P (Ser-9)” and the Cdh-1 gene expression [4] was “differential expression induced by ANDRO”. The “number of Wnt target genes specifically modulated” value ([4]; 9 h, of the 86 genes analyzed) was 3 genes, the “number of modulated Wnt target genes shared by both treatments” value ([4]; 9 h, of the 86 genes analyzed) was 4 and the Ets2 gene expression ([4]; after Bonferroni correction) was “down-regulation of Ets2 gene”. For the same compound, the “number of trial to criterion of learning” value [5] was “reduction in the number of trial to criterion of learning” and the escape latency [6] was “significantly lower escape latency values”.

Reference: patent US20150352075A1, “Treatment of Alzheimer's and Cognitive Impairment With Andrographolides” (INNOBIOSCIENCE, LLC, priority 2013, published 2015)
